From patent US20100240746A1, “STEREOISOMERS OF TRICYCLODECAN-9-YL-XANTHOGENATE” (LUMAVITA AG, priority 2007, published 2010)
In brackets after ≈: the same amount, converted by molar mass.

Tests used:
[1] = tested on: Calu-6 cells; test: Cytotoxicity assay in Calu-6 cells (crystal violet); format: cell-based; settings: 48 hr
Protocol: (§1) Calu-6 cells and RITA cells were grown in DMEM cell culture medium containing 10% fetal calf serum in CO2 incubator under 5% CO2 at 37° C. with 100% humidity.
For cytotoxicity assay, Calu-6 cells were seeded in 96 well plates at a density of 3×10^6 cells per plate in the DMEM cell culture medium. The plates were incubated at 37° C. in the presence of 5% CO2 for 24 hr. The DMEM cell culture medium in the plates was exchanged with fresh DMEM cell culture medium containing test compounds at a series of concentrations. The plates were incubated at 37° C. in the presence of 5% CO2 for 48 hr. The plates were then washed with PBS, fixed with 3% formaldehyde solution containing 0.9% NaCl for 1 min, washed by water for 10 sec, and dried overnight. For detection, the plates were stained with crystal violet solution for 5 min at room temperature, washed 5 times with water, and dried at room temperature overnight. After adding ethanol/acetic acid (99:1, v/v, […]) to each well, the plates were measured at 595 nm using an ELISA reader. A dose response curve was obtained for each compound tested by plotting the mean values of the optical densities against compound concentration.

[2] = tested on: bovine papilloma virus type I (BPV-1)-transformed HEF (HEF-BPV); test: BPV-infected hamster embryo fibroblasts (HEF) cell proliferation assay; format: cell-based; settings: 72 hr incubation
Protocol: Briefly, hamster embryo fibroblasts and bovine papilloma virus type I (BPV-1)-transformed HEF (HEF-BPV) were grown in Eagle's basal medium. […] and HEF cells were seeded in 96-well plates at a density of 0.5×10^6 cells per plate in DMEM cell culture medium containing 10% fetal calf serum at pH 6.8. The plates were then incubated in the presence of 5% CO2 in 100% humidity at 37° C. After 6 hr, the cell culture medium in the plates was exchanged with fresh DMEM cell culture medium containing test compounds at a series of concentrations. The plates were incubated at 37° C. for additional 72 hr. Cells in the plates were then washed with PBS, fixed with 3% formaldehyde solution containing 0.9% NaCl for 1 min, washed by water for 10 sec, and dried overnight. For detection, the plates were stained with crystal violet solution for 5 min at room temperature, washed 5 times with water, and dried at room temperature overnight. After adding ethanol/acetic acid (99:1, v/v, […]) to each well, the plates were measured at 595 nm using an ELISA reader.

[3] = tested on: herpes simplex virus type 2; test: HSV-2 inhibition in Calu-6 cells, plaque titration on RITA cells; format: cell-based; settings: Human alphaherpesvirus 2, Calu-6; 48 hr, 50 plaque forming units per well
Protocol: as §1
For HSV-2 inhibition, Calu-6 cells were seeded in 96 well plates at a density of 3×10^6 cells per plate in the DMEM cell culture medium. The plates were incubated at 37° C. in the presence of 5% CO2 for 24 hr. The DMEM cell culture medium in the plates was removed and the cells were infected with Herpes simplex virus type-2 at 50 plaque forming units per well. After incubation at 37° C. for 60 min, test compounds in DMEM cell culture medium at a series of concentrations were added. The plates were incubated at 37° C. in the presence of 5% CO2 for 48 hr. The plates were frozen at −20° C. prior to further analysis. After thawing at room temperature, supernatants containing infectious virus particles were prepared by centrifuging the supernatant from each well at 18,000 g at 4° C. for 5 min. The supernatant was further diluted before assay.
RITA cells were seeded in 24 well Linbra plates at a density of 4×10^6 cells per plate in 2 mL of DMEM cell culture medium. The plates were incubated at 37° C. in the presence of 5% CO2 for 24 hr. […] The number of plaques was determined macroscopically. […] The therapeutic index was also calculated for each compound by dividing LD50 with IC50.

[4] = target: T1, phosphatidylcholine-specific phospholipase C (PC-PLC) (Bacillus cereus, UniProt P09598); test: Amplex Red phosphatidylcholine-specific phospholipase C (PC-PLC) inhibition assay; format: biochemical, B. cereus; settings: 30 min at 37° C., triplicate; read-out: IC50 (converted)
T1 construct: purchased Invitrogen
T1 sequence (P09598 39-283 limits assumed): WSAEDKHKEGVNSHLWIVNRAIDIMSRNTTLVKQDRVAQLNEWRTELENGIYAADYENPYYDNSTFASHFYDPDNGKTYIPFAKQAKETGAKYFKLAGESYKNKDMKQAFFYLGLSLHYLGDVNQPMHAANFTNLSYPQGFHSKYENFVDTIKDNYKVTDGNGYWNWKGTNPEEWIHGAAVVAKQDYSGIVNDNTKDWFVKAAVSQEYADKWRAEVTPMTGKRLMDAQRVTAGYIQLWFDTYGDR
Protocol: The inhibitory activities of optically active potassium salts of (+)- and (−)-O-exo/C-exo-tricyclo [5.2.1.0^2,6]-dec-9-yl-xanthic acid 1A ((+)- and (−)-enantiomers 1A) against phosphatidylcholine-specific phospholipase C were evaluated, together with D609 and potassium salt of racemic O-exo/C-exo xanthic acid 1A (racemic 1A), using Amplex Red phosphatidylcholine-specific phospholipase C(PC-PLC) assay kit, which was obtained from Invitrogen (Calsbad, Calif.). D609 was obtained from Sigma Aldrich.
An Amplex Red stock solution (˜20 mM), a working reaction buffer, and a horseradish peroxidase stock solution (200 U/mL), a H2O2 working solution (20 mM), a choline oxidate stock solution (20 U/mL), an alkaline phosphatase stock solution (400 U/mL), and a B. cereus PC-PLC stock solution (10 U/mL) were prepared according to the instruction of the assay kit. The stock solution (100 mg/mL) for each test compound was also prepared by dissolving the compound in water 2 hr prior to the start of the experiment.
A working Amplex Red/HRP/lecithin solution was prepared by adding 200 μL of Amplex Red reagent stock solution, 100 μL of HRP stock solution, 200 μL of alkaline phosphatase stock solution, 100 μL of choline oxidase stock solution, and 78 μL of the lecithin solution to […] of the working reaction buffer. PC-PLC solution (0.2 U/mL) was prepared by diluting the PC-PLC stock solution with the working reaction buffer to the desired concentration.
The test compound (25 μL) at a serious of concentrations was pipetted into a 96 well plate. For uninhibited PC-PLC controls and non-PC-PLC controls, 25 μL of water was added. After the addition of 50 μL of the Amplex Red/HRP/lecithin working solution, the reaction was initiated by adding 25 μL of PC-PLC solution to each well. To the non-PC-PLC controls, 25 μL of water was added instead of PC-PLC solution. The experiment was performed in triplicate. The reactions were protected from light. After incubated for 30 min at 37° C., the reactions were measured with a fluorescence microplate reader using excitation at 550 nm and emission detection at 590 nm. The fluorescent data obtained were corrected for background fluorescence by subtracting the values obtained from the non-PC-PLC controls.

For `S=C(S)O[C@@H]1C[C@@H]2C[C@H]1[C@H]1CCC[C@@H]21` (racemic) [Racemic 1A, racemic O-exo/C-exo xanthic acid 1A, reference compound], the LD50 [1] was 96.93 ± 7.12 µg/mL, the IC50 [2] was 14.55 ± 0.07 µg/mL (≈ 63.7 µM) and the IC50 [3] was 17.2 ± 5.95 µg/mL (≈ 75.2 µM). The IC50 [4] was 44 µM.
